The record followed here is ChEMBL document CHEMBL5050833, “Novel cyclic trex1 inhibitors” (2020).

SMILES strings stand for the structures. Where only a bound is given, the exact number is not on record here.

Experiment [1] can be described thus: Inhibition of human TREX1 exonuclease activity using labeled DNA oligonucleotide as substrate incubated for 30 mins and measured after 45 mins by fluorescence assay.
A short description of experiment [2]: Inhibition of mouse TREX1 exonuclease activity using labeled DNA oligonucleotide as substrate incubated for 30 mins and measured after 45 mins by fluorescence assay.

As for `CC(C)C[C@H](C(=O)NCc1ccc(C(F)(F)F)cc1)N1CCC(CCc2ccccc2)N2C[C@H](N)C[C@H]2C1=O` (stereo not given in full), the IC50 in experiment [1] and in experiment [2] was less than 1000 nM throughout.
For `CC(C)C[C@H](C(=O)NCc1ccccc1Cl)N1CCC(CCc2ccccc2)N2C[C@H](N)C[C@H]2C1=O` (stereo not given in full), the IC50 entry in experiment [1] is “in the range around 1000 nM”; in experiment [2], “in the range around 10000 nM”.
For `CC(C)C[C@H](C(=O)NCC1CCCCC1)N1CCC(CCc2ccccc2)N2C[C@H](N)C[C@H]2C1=O` (stereo not given in full), the IC50 entry in experiment [1] and in experiment [2] was “in the range around 10000 nM” in each case.
With `C[C@H](C(=O)NCc1ccc(C(F)(F)F)cc1)N1CCC(CCc2ccccc2)N2C[C@H](N)C[C@H]2C1=O` (stereo not given in full), the half-inhibitory concentration (IC50) in experiment [1] and in experiment [2] was less than 1000 nM throughout.
With `CC(C)C[C@H](C(=O)NCc1ccc(Cl)cc1)N1CCC(C[S@@+]([O-])c2ccccc2)N2C[C@H](N)C[C@H]2C1=O` (stereo not given in full), the half-inhibitory concentration (IC50) was less than 1000 nM in experiment [1] and “in the range around 1000 nM” in experiment [2].
The corresponding values for `N[C@@H]1C[C@H]2C(=O)N([C@H](CCC(=O)O)C(=O)NCc3ccc(C(F)(F)F)cc3)CCC(CCc3ccccc3)N2C1` (stereo in doubt; form 1) are “in the range around 10000 nM” and “in the range around 10000 nM”.
Take `CC(C)C[C@H](C(=O)NCc1ccc(Cl)c(Cl)c1)N1CCC(CCc2ccccc2)N2C[C@H](N(C)C)C[C@H]2C1=O` (stereo not given in full): the IC50 result was “in the range around 10000 nM” in experiment [1] and more than 100000 nM in experiment [2].
On to `CC(C)C[C@H](C(=O)NCc1ccc(Cl)c(Cl)c1)N1CCC(CCc2ccc(Cl)cc2)N2C[C@H](N)C[C@H]2C1=O` (stereo not given in full), for which the IC50 in experiment [1] is less than 1000 nM; in experiment [2], “in the range around 1000 nM”.
For `CC(C)C[C@H](C(=O)NCc1ccc(Cl)c(Cl)c1)N1CCC(COc2ccccc2)N2C[C@H](N)C[C@H]2C1=O` (stereo not given in full), the results for the half-inhibitory concentration (IC50) in experiment [1] and in experiment [2] were less than 1000 nM and “in the range around 1000 nM”, respectively.
Regarding `CC(C)C[C@H](C(=O)NCc1cscn1)N1CCC(CCc2ccccc2)N2C[C@H](N)C[C@H]2C1=O` (stereo not given in full), the results for the IC50 result in experiment [1] and in experiment [2] were “in the range around 1000 nM” and “in the range around 10000 nM”, respectively.
The corresponding values for `CCC[C@H](C(=O)NS(=O)(=O)c1ccc(Cl)c(Cl)c1)N1CCC(CCc2ccccc2)N2C[C@H](N)C[C@H]2C1=O` (stereo not given in full) are less than 1000 nM and “in the range around 1000 nM”.
With `CC(C)C[C@H](C(=O)NCc1ccc(Cl)c(Cl)c1)N1CCC(CSc2ccccc2)N2C[C@H](N)C[C@H]2C1=O` (stereo not given in full), the 50% inhibitory concentration (IC50) in experiment [1] and in experiment [2] was less than 1000 nM each time.
Turning to `CC(C)C[C@H](C(=O)N[C@@H](C)c1ccccc1)N1CCC(CCc2ccccc2)N2C[C@H](N)C[C@H]2C1=O` (stereo not given in full), the IC50 entry in experiment [1] and in experiment [2] was “in the range around 10000 nM” throughout.
Take `CC(C)C[C@H](C(=O)NCc1ccc(F)cc1)N1CCC(CCc2ccccc2)N2C[C@H](N)C[C@H]2C1=O` (stereo not given in full): the IC50 is less than 1000 nM in experiment [1] and “in the range around 1000 nM” in experiment [2].
For `CC(C)C[C@H](C(=O)N(C)Cc1ccc(C(F)(F)F)cc1)N1CCC(CCc2ccccc2)N2C[C@H](N)C[C@H]2C1=O` (stereo not given in full), the concentration for half-maximal inhibition (IC50) entry in experiment [1] and in experiment [2] was “in the range around 1000 nM” in each case.
For `N[C@@H]1C[C@H]2C(=O)N([C@H](CCC(=O)O)C(=O)NCc3ccc(Cl)c(Cl)c3)CCC(CCc3ccccc3)N2C1` (stereo in doubt; form 2), the IC50 in experiment [1] and in experiment [2] was less than 1000 nM in each case.
With `N[C@@H]1C[C@H]2C(=O)N([C@H](CC(=O)O)C(=O)NCc3ccc(Cl)c(Cl)c3)CCC(CCc3ccccc3)N2C1` (stereo not given in full), the IC50 in experiment [1] and in experiment [2] was less than 1000 nM throughout.
For `CC(C)C[C@H](C(=O)NCc1ccc(Cl)cc1Cl)N1CCC(CCc2ccccc2)N2C[C@H](N)C[C@H]2C1=O` (stereo not given in full), the concentration for half-maximal inhibition (IC50) was less than 1000 nM in experiment [1] and “in the range around 1000 nM” in experiment [2].
In the same order, the values of `CC(C)C[C@H](C(=O)NCc1ccc(Cl)cc1)N1CCC(CCc2ccccc2)N2C[C@H](N)C[C@H]2C1=O` (stereo not given in full) are less than 1000 nM and “in the range around 1000 nM”.
`CC(C)C[C@H](C(=O)NCc1cccc(Cl)c1)N1CCC(CCc2ccccc2)N2C[C@H](N)C[C@H]2C1=O` (stereo not given in full): the IC50 in experiment [1] is less than 1000 nM; in experiment [2], “in the range around 1000 nM”.
As for `CC(C)C[C@H](C(=O)NCc1ccc(Cl)c(Cl)c1)N1CC(CCc2ccccc2)N2C[C@H](N)C[C@H]2C1=O` (stereo not given in full), the IC50 entry in experiment [1] and in experiment [2] was “in the range around 10000 nM” throughout.
In the case of `NC(=O)CC[C@H](C(=O)NCc1ccc(Cl)c(Cl)c1)N1CCC(CCc2ccccc2)N2C[C@H](N)C[C@H]2C1=O` (stereo not given in full), the half-inhibitory concentration (IC50) in experiment [1] and in experiment [2] was less than 1000 nM each time.
Consider `CC(C)C[C@H](C(=O)NS(=O)(=O)c1ccccc1)N1CCC(CCc2ccccc2)N2C[C@H](N)C[C@H]2C1=O` (stereo not given in full), for which the IC50 entry in experiment [1] and in experiment [2] was “in the range around 1000 nM” in each case.
For `CC(C)C[C@H](C(=O)NCc1ccc(Cl)c(Cl)c1)N1CCC(CCc2ccccc2)N(CCN)CC1=O` (stereo not given in full), the figures for the half-inhibitory concentration (IC50) entry in experiment [1] and in experiment [2] were “in the range around 1000 nM” and “in the range around 10000 nM”, respectively.
On to `CC(C)C[C@H](C(=O)NCCc1ccc(Cl)c(Cl)c1)N1CCC(CCc2ccccc2)N2C[C@H](N)C[C@H]2C1=O` (stereo not given in full), for which the IC50 in experiment [1] was less than 1000 nM; in experiment [2] it was “in the range around 1000 nM”.
With `CC(C)C[C@H](C(=O)NS(=O)(=O)c1ccc(Cl)c(Cl)c1)N1CCC(CCc2ccccc2)N2C[C@H](N)C[C@H]2C1=O` (stereo not given in full), the half-maximal inhibitory concentration (IC50) in experiment [1] and in experiment [2] was less than 1000 nM in each case.
With `CC(C)C[C@H](C(=O)NCc1cc(Cl)cc(Cl)c1)N1CCC(CCc2ccccc2)N2C[C@H](N)C[C@H]2C1=O` (stereo not given in full), the 50% inhibitory concentration (IC50) in experiment [1] is less than 1000 nM; in experiment [2], “in the range around 1000 nM”.
As for `CC(C)C[C@H](C(=O)N[C@H](C)c1ccccc1)N1CCC(CCc2ccccc2)N2C[C@H](N)C[C@H]2C1=O` (stereo not given in full), the IC50 result in experiment [1] and in experiment [2] was “in the range around 10000 nM” throughout.
In the case of `CC(C)C[C@H](CNC(=O)c1ccc(Cl)cc1)N1CCC(CCc2ccccc2)N2C[C@H](N)C[C@H]2C1=O` (stereo not given in full), the IC50 entry in experiment [1] and in experiment [2] was “in the range around 1000 nM” in each case.
Turning to `CC(C)C[C@H](C(=O)NCc1cnccn1)N1CCC(CCc2ccccc2)N2C[C@H](N)C[C@H]2C1=O` (stereo not given in full), the values for the 50% inhibitory concentration (IC50) entry in experiment [1] and in experiment [2] were “in the range around 1000 nM” and “in the range around 10000 nM”, respectively.
In the same order, the values of `N[C@@H]1C[C@H]2C(=O)N([C@H](CCC(=O)O)C(=O)NCc3ccc(Cl)c(Cl)c3)CCC(COc3ccccc3)N2C1` (stereo not given in full) are less than 1000 nM and less than 1000 nM.
Consider `CC(C)C[C@H](C(=O)NCc1ccc(Cl)c(Cl)c1)N1CCC(C)N2C[C@H](N)C[C@H]2C1=O` (stereo not given in full), for which the IC50 entry in experiment [1] and in experiment [2] was “in the range around 10000 nM” in each case.
Take `CC(C)C[C@H](C(=O)NCc1cncs1)N1CCC(CCc2ccccc2)N2C[C@H](N)C[C@H]2C1=O` (stereo not given in full): the IC50 entry in experiment [1] was “in the range around 1000 nM”; in experiment [2], “in the range around 10000 nM”.
`N[C@@H]1C[C@H]2C(=O)N([C@H](CCC(=O)O)C(=O)NCc3ccc(Cl)c(Cl)c3)CCC(CCc3ccccc3)N2C1` (stereo in doubt; form 1): the 50% inhibitory concentration (IC50) result in experiment [1] and in experiment [2] was “in the range around 10000 nM” in each case.
For the compound `CC(C)C[C@H](C(=O)NCc1ccc(Cl)c(Cl)c1)N1CCC(Cc2ccccc2)N2C[C@H](N)C[C@H]2C1=O` (stereo not given in full), the concentration for half-maximal inhibition (IC50) result in experiment [1] and in experiment [2] was “in the range around 1000 nM” each time.
As to `N[C@@H]1C[C@H]2C(=O)N([C@H](CCC(=O)O)C(=O)NCc3ccc(C(F)(F)F)cc3)CCC(CCc3ccccc3)N2C1` (stereo in doubt; form 2), the concentration for half-maximal inhibition (IC50) in experiment [1] and in experiment [2] was less than 1000 nM each time.
With `CC(C)C[C@H](C(=O)NCc1ccccc1)N1CCC(CCc2ccccc2)N2C[C@H](N)C[C@H]2C1=O` (stereo not given in full), the half-maximal inhibitory concentration (IC50) result in experiment [1] was “in the range around 1000 nM”; in experiment [2], “in the range around 10000 nM”.
For `Cc1nnc(CC[C@H](C(=O)NCc2ccc(Cl)c(Cl)c2)N2CCC(CCc3ccccc3)N3C[C@H](N)C[C@H]3C2=O)[nH]1` (stereo not given in full), the half-inhibitory concentration (IC50) in experiment [1] and in experiment [2] was less than 1000 nM in each case.
Consider `CC(C)C[C@H](C(=O)NCc1ccc(Cl)cc1)N1CCC(CS(=O)(=O)c2ccccc2)N2C[C@H](N)C[C@H]2C1=O` (stereo not given in full), for which the IC50 result in experiment [1] was “in the range around 1000 nM”; in experiment [2], “in the range around 10000 nM”.
Take `N[C@@H]1C[C@H]2C(=O)N([C@H](CCc3nnn[nH]3)C(=O)NCc3ccc(Cl)c(Cl)c3)CCC(CCc3ccccc3)N2C1` (stereo not given in full): the concentration for half-maximal inhibition (IC50) in experiment [1] and in experiment [2] was less than 1000 nM each time.
On to `CC(=O)N[C@@H]1C[C@H]2C(=O)N([C@H](CC(C)C)C(=O)NCc3ccc(Cl)c(Cl)c3)CCC(CCc3ccccc3)N2C1` (stereo not given in full), for which the IC50 result in experiment [1] is “in the range around 1000 nM”; in experiment [2], “in the range around 10000 nM”.
On to `CC(C)C[C@H](C(=O)NCCc1ccccc1)N1CCC(CCc2ccccc2)N2C[C@H](N)C[C@H]2C1=O` (stereo not given in full), for which the half-maximal inhibitory concentration (IC50) result is “in the range around 1000 nM” in experiment [1] and “in the range around 10000 nM” in experiment [2].
Consider `N[C@@H]1C[C@H]2C(=O)N([C@H](CCc3nsc(=O)[nH]3)C(=O)NCc3ccc(Cl)c(Cl)c3)CCC(CCc3ccccc3)N2C1` (stereo not given in full), for which the 50% inhibitory concentration (IC50) in experiment [1] and in experiment [2] was less than 1000 nM each time.
In the case of `CC(C)C[C@H](C(=O)NCc1ccc(Cl)cc1)N1CCC(C[S@+]([O-])c2ccccc2)N2C[C@H](N)C[C@H]2C1=O` (stereo not given in full), the IC50 in experiment [1] is less than 1000 nM; in experiment [2] it was “in the range around 1000 nM”.
As for `CC(C)C[C@H](C(=O)NCc1ccc(C#N)cc1)N1CCC(CCc2ccccc2)N2C[C@H](N)C[C@H]2C1=O` (stereo not given in full), the half-maximal inhibitory concentration (IC50) entry in experiment [1] is “in the range around 1000 nM”; in experiment [2] it was “in the range around 10000 nM”.

Broadly, the IC50 is the concentration that gives 50% inhibition.
